Laboratory results taken from ChEMBL document CHEMBL1201862, “PubChem BioAssay data set” (2004).
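Values below derive from 48-hour exposures of cells grown in 96-well plates, with endpoints linearly interpolated between the two concentrations bracketing the appropriate inhibition level. Here, GI50 denotes the concentration required for 50% inhibition of growth.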 The source made the active and inactive calls. Rule as the data show it: active = GI50 up to about 1.1 µM and inactive = higher.

Columns and labels:
Assay in all cases: NCI tumour cell line growth inhibition, 48 h
OVCAR-3 = test system: OVCAR-3
SF-295 = test system: SF-295
U-251 = test system: U-251
NCI/ADR-RES = test system: NCI/ADR-RES
SK-MEL-5 = test system: SK-MEL-5
UACC-257 = test system: UACC-257
LOX IMVI = test system: LOX IMVI
M14 = test system: M14
RXF 393 = test system: RXF 393
OVCAR-8 = test system: OVCAR-8
T47D = test system: T47D
K562 = test system: K562
UACC-62 = test system: UACC-62
CAKI-1 = test system: CAKI-1
SK-MEL-2 = test system: SK-MEL-2
NCI-H226 = test system: NCI-H226
MDA-N = test system: MDA-N
SR = test system: SR
IGROV-1 = test system: IGROV-1
Malme-3M = test system: Malme-3M

Measured: GI50

COC(=O)[C@@H]1CN(C(=O)c2ccccc2)C(=O)N1C(=O)OCc1ccccc1
inactive: OVCAR-3 > 100 µM | SF-295 > 100 µM | U-251 > 100 µM | NCI/ADR-RES > 100 µM | SK-MEL-5 > 100 µM | UACC-257 > 100 µM | LOX IMVI > 100 µM | M14 > 100 µM | RXF 393 > 100 µM | OVCAR-8 > 100 µM | T47D > 100 µM | K562 > 100 µM | UACC-62 > 100 µM | CAKI-1 > 100 µM | SK-MEL-2 > 100 µM | NCI-H226 > 100 µM | MDA-N > 100 µM | SR > 100 µM | IGROV-1 > 100 µM | Malme-3M > 100 µM

O=C(Cc1ccc(Cl)c(Cl)c1)NCCCN1CCN(CCCN2CCCCC2)CC1
inactive: OVCAR-3 25.5 µM | SF-295 19 µM | U-251 15.7 µM | NCI/ADR-RES > 100 µM | SK-MEL-5 10.4 µM | UACC-257 5.26 µM | LOX IMVI 14.1 µM | M14 19.3 µM | RXF 393 13.2 µM | OVCAR-8 27.6 µM | T47D 20.3 µM | K562 2.17 µM | UACC-62 3.84 µM | CAKI-1 20.4 µM | SK-MEL-2 6.59 µM | NCI-H226 21.7 µM | MDA-N 2.45 µM | SR 11.7 µM | IGROV-1 27.1 µM | Malme-3M 17.6 µM

C[C@]12CCC(=O)C=C1C[C@@H](O)[C@@H]1[C@@H]2CC[C@@]2(C)[C@H]1CC[C@]2(C)O
inactive: OVCAR-3 > 100 µM | SF-295 > 100 µM | U-251 > 100 µM | NCI/ADR-RES > 100 µM | SK-MEL-5 > 100 µM | UACC-257 > 100 µM | LOX IMVI > 100 µM | M14 > 100 µM | RXF 393 > 100 µM | OVCAR-8 > 100 µM | T47D > 100 µM | K562 > 100 µM | UACC-62 > 100 µM | CAKI-1 > 100 µM | SK-MEL-2 > 100 µM | NCI-H226 > 100 µM | MDA-N > 100 µM | SR > 100 µM | IGROV-1 > 100 µM | Malme-3M > 100 µM

O=[N+]([O-])c1ccc(-c2nc3ccccc3o2)cc1
inactive: OVCAR-3 > 100 µM | SF-295 > 100 µM | U-251 > 100 µM | NCI/ADR-RES > 100 µM | SK-MEL-5 > 100 µM | UACC-257 > 100 µM | LOX IMVI > 100 µM | M14 > 100 µM | RXF 393 > 100 µM | OVCAR-8 > 100 µM | T47D > 100 µM | K562 > 100 µM | UACC-62 > 100 µM | CAKI-1 > 100 µM | SK-MEL-2 > 100 µM | NCI-H226 > 100 µM | MDA-N > 100 µM | SR > 100 µM | IGROV-1 > 100 µM | Malme-3M > 100 µM

COc1ccccc1CC1(O)OC(=O)c2ccccc21 (stereo not given)
inactive: OVCAR-3 > 100 µM | SF-295 > 100 µM | U-251 > 100 µM | NCI/ADR-RES > 100 µM | SK-MEL-5 > 100 µM | UACC-257 > 100 µM | LOX IMVI > 100 µM | M14 > 100 µM | RXF 393 > 100 µM | OVCAR-8 > 100 µM | T47D > 100 µM | K562 > 100 µM | UACC-62 > 100 µM | CAKI-1 > 100 µM | SK-MEL-2 > 100 µM | NCI-H226 > 100 µM | MDA-N > 100 µM | SR > 100 µM | IGROV-1 > 100 µM | Malme-3M > 100 µM
